According to patent publication US20260029420A1, “ANTI-CB2 ANTIBODIES AND THEIR USE IN A FLOW CYTOMETRY ASSAY TO MEASURE CELL SURFACE CB2 EXPRESSION” (Hoffmann-La Roche Inc., priority 2022, published 2026):

Experiments:
CB2 [1] = target: CB2 (Macaca fascicularis, UniProt G7NVV5); assay: In vivo CB2 internalization on B-cells upon oral dosing in Cynomolgus monkeys; set-up: species or system Cynomolgus monkey
Protocol: FIG. 11: In vivo feasibility for the new CB2 flow cytometry assay to monitor pharmacodynamic response in vitro on B-cells upon oral dosing. Six healthy Cynomolgus monkeys were dosed with three different doses of an oral micro suspension of RG7774 with two animals per dose group. Blood drawn at different time points was incubated with the anti-human CB2 antibody 1/622. The expression of CB2 on the surface of B-cells was analyzed using a lineage marker mix specific for B-cells and T-cells. The B/T-cell CB2 MFI ratio was calculated and normalized to baseline. 0 μM served as 100% baseline receptor expression. For the animal Mina, blood samples could only be taken up to 1 hour after experimental start, since the animal had to be remove of the study due to a rectal prolapse.
FIG. 12: Single dose in vivo study monitoring the pharmacodynomic effect of RG7774 on CB2 expression on B-cells in Cynomolgus upon oral dosing. Three healthy cynomolgus monkeys were dosed with 100 mg/kg of the CB2 agonist RG7774. The blood draw at different time points was followed by the incubation with the anti-human CB2 antibody 1/622. The expression of CB2 on the surface of B-cells was analyzed using a lineage marker mix specific for B-cells and T-cells. The B/T-cell CB2 MFI ratio was calculated and normalized to baseline. 0 μM served as 100% baseline receptor expression. […] Due to a storage effect of the antibody working dilution (5 μg/sample) of the anti-human CB2 Ab 1/622 the 4 and 7 hours' time point have been excluded. The working dilution of this antibody is only stable for 2 hours on ice.
The feasibility of applying the newly developed CB2 flow cytometry assay as an assay to monitor pharmacodynamic response to oral doses of RG7774 was evaluated in three groups of two Cynomolgus monkeys. Upon oral administration of three different single doses of a micro suspension of 0.5, 5 and 100 mg/kg RG7774 respectively, blood samples from all animals were taken at the selected time points: 0 (pre-dose) and 0.25, 0.5, 1, 2, 4, 7 and 24 h post dosing and subjected to the CB2 flow cytometry analysis (FIG. 11).
In this in vivo cyno study three cynomolgus monkeys were orally dosed with 100 mg/kg of RG7774. Blood sampling for TE-assay was performed at selected time points: −96, −24 (both time points not shown), 0 (predose) and 0.25, 0.5, 1, 2, 4, 7, 24, 31, 48 and 72 hours post-dosing (FIG. 12).

CB2 [2] = target: T1, CB2 (Homo sapiens, UniProt P34972); assay: Phase I clinical trial CB2 target engagement on B-cells in healthy volunteers; assay type: in vivo; conditions: for time of nadir (lowest CB2 surface expression) post-dose: single oral dose
T1 construct: measured in whole blood samples from nine different healthy human volunteers of working-age; endogenous in cells; host or cells: B-cells (and basophils and other leukocytes) in human whole blood
T1 sequence (P34972 whole entry): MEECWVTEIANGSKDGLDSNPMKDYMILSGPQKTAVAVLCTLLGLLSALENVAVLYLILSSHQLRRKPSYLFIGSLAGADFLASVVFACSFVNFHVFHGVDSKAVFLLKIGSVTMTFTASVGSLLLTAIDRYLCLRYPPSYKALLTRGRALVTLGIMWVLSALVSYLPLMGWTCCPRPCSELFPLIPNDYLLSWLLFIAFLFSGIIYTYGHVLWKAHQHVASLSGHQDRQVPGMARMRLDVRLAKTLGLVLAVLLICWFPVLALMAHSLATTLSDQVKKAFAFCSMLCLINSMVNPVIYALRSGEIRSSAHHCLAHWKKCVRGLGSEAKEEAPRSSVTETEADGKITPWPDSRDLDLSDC
Protocol: FIG. 13: Arithmetic Mean (+SD) Percentage Change-from-Baseline (CFB) of CB2-Receptor Target Engagement on B-cells in Blood versus Time Following Single Oral Dose Administration of 0.75 mg to 300 mg RG7774 in the Fasted State (n=6 on active drug vs 2 on placebo per dose level).
FIG. 14: Arithmetic Mean (+SD) Percentage Change-from-Baseline (CFB) of CB2-Receptor Target Engagement on B-cells in Blood versus Time Following Single Oral Dose Administration of 100 mg RG7774 in fasted and fed state.
FIG. 15: Arithmetic Mean (+SD) Percentage Change-from-Baseline (CFB) of CB2-Receptor Target Engagement on B-cells in Blood versus Time Following Multiple Oral Dose Administration of 20 mg to 300 mg RG7774 once daily for 14 Days.
The clinical utility of the newly developed CB2 flow cytometry assay as a measure for target engagement in a clinical setting was confirmed by its successful implementation in a phase I clinical trial in healthy volunteers. In the clinical setting B/T-cell ratio was not used as it introduced higher variability relative to the baseline normalized B-cell data alone.
In a first step, oral administration of a single ascending dose (SAD) of RG7774 in the range between 0.75 mg and 300 mg in the fasted state was assessed. Following oral administration of RG774, the onset of CB2 internalization was rapid, with the nadir (lowest CB2 surface expression) achieved at 4 hours post-dose for doses below 10 mg RG7774, and at 1 hour post-dose for doses at 10 mg to 30 mg RG7774 (FIG. 13). For the two highest tested doses of 100 mg and 300 mg RG7774, the time to reach the nadir shifted with the area under the effect curve increasing. […] This indicates successful target engagement of RG7774 upon oral dosing. Furthermore, the assay was utilized to inform stopping rules for dose escalation in the SAD part of the first-in-human (FIH) trial.
In a third part of the FIH study, the effects of multiple ascending doses (MAD) of 20 mg to 300 mg RG7774 administered once daily over 14 days on CB2 internalization were investigated (FIG. 15).

[3] = 20 mg to 300 mg once daily over 14 days

Chain of CB2 (Macaca fascicularis, UniProt G7NVV5) (G7NVV5 1-360): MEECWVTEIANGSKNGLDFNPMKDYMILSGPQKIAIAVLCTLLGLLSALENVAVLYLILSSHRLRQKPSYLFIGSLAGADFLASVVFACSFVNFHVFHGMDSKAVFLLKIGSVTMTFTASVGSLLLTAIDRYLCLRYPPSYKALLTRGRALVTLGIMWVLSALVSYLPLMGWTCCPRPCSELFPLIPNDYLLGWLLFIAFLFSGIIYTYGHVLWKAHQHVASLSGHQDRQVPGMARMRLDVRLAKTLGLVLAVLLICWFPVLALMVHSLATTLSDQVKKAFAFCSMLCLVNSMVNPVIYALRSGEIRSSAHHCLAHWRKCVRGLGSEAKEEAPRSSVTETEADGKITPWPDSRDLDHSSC

Cn1nnnc1Cn1nnc2c(N3CC[C@H](O)C3)nc(C(C)(C)C)nc21 [RG7774, (S)-1-[5-tert-Butyl-3-(1-methyl-1H-tetrazol-5-ylmethyl)-3H-[1,2,3]triazolo [4,5-d]pyrimidin-7-yl]-pyrrolidin-3-ol]
onset of pharmacodynamic effect on CB2 surface expression on B-cells (CB2 [1]; 100 mg/kg oral): ≤ 15 min
duration of reduction of CB2 expression on B-cells (CB2 [1]; single oral doses 0.5, 5 and 100 mg/kg): around 24 hours
reduction relative to individual baseline CB2 expression on B-cells (CB2 [1]; single oral doses 0.5, 5 and 100 mg/kg micro suspension): dose dependent reduction
responder status in vivo (CB2 [1]; three cynomolgus monkeys, 100 mg/kg oral): One out of three cynos is a non-responder
desensitization of CB2 internalization (CB2 [2]; [3]): no desensitization was observed
steady-state of PD effect (CB2 [2]; [3]): steady-state was reached during the observation period
impact of food consumption on the pharmacodynamic (PD) effects (CB2 [2]; 100 mg single dose, fasted (n=8) vs fed (n=8)): no relevant impact
time to reversal of reduction of CB2 surface receptor expression upon stopping the drug (CB2 [2]; after 14 days once daily, not yet fully reversed for the two highest doses): ~1 week
extent of CB2 internalization (CB2 target engagement) (CB2 [2]; single ascending dose 0.75 mg to 300 mg, fasted): increased dose-dependently
time of nadir (lowest CB2 surface expression) post-dose (CB2 [2]; fasted, doses at 10 mg to 30 mg): 1 h
time of nadir (lowest CB2 surface expression) post-dose (CB2 [2]; fasted, doses below 10 mg): 4 h
